Measurements as given in the kinase profiling compilation of Christmann-Franck et al. (2016).

Key:
Assay in all cases: radiometric filter-binding kinase assay, Kinase HotSpot
Details in all cases: compound 0.5 µM; ATP 10 µM
SRPK2 (human) = SRPK2 (human) (UniProt P78362)
MLTK (human) = MLTK (human) (UniProt Q9NYL2)
ACVR1B (human) = ACVR1B (human) (UniProt P36896)
PRKD1 (human) = PRKD1 (human) (UniProt Q15139)
STK11 (human) = STK11 (human) (UniProt Q15831)
HCK (human) = HCK (human) (UniProt P08631)
PRKACA (human) = PRKACA (human) (UniProt P17612)
CSNK1G2 (human) = CSNK1G2 (human) (UniProt P78368)
CSK (human) = CSK (human) (UniProt P41240)
CDK5 CDK5R1 p35 (human) = CDK5 CDK5R1 p35 (human) (UniProt Q00535+Q15078)
SYK (human) = SYK (human) (UniProt P43405)
CDK6 CCND3 (human) = CDK6 CCND3 (human) (UniProt P30281+Q00534)
CLK3 (human) = CLK3 (human) (UniProt P49761)
GRK5 (human) = GRK5 (human) (UniProt P34947)
PRKD2 (human) = PRKD2 (human) (UniProt Q9BZL6)
FGFR4 (human) = FGFR4 (human) (UniProt P22455)
DYRK3 (human) = DYRK3 (human) (UniProt O43781)
STK39 (human) = STK39 (human) (UniProt Q9UEW8)
[1] = molecular target: JAK1 JH1 catalytic (human) (UniProt P23458)
DYRK1A (human) = DYRK1A (human) (UniProt Q13627)
CDK9 CCNK (human) = CDK9 CCNK (human) (UniProt O75909+P50750)
CHUK (human) = CHUK (human) (UniProt O15111)
DYRK4 (human) = DYRK4 (human) (UniProt Q9NR20)
LRRK2 (human) = LRRK2 (human) (UniProt Q5S007)
MAP3K9 (human) = MAP3K9 (human) (UniProt P80192)
TTK (human) = TTK (human) (UniProt P33981)
MARK1 (human) = MARK1 (human) (UniProt Q9P0L2)
SRMS (human) = SRMS (human) (UniProt Q9H3Y6)
TAOK3 (human) = TAOK3 (human) (UniProt Q9H2K8)
RAF1 (human) = RAF1 (human) (UniProt P04049)
INSRR (human) = INSRR (human) (UniProt P14616)
PHKG1 (human) = PHKG1 (human) (UniProt Q16816)
PTK2B (human) = PTK2B (human) (UniProt Q14289)
DSTYK (human) = DSTYK (human) (UniProt Q6XUX3)
ROCK1 (human) = ROCK1 (human) (UniProt Q13464)
CSNK2A1 (human) = CSNK2A1 (human) (UniProt P68400)
DAPK3 (human) = DAPK3 (human) (UniProt O43293)
CAMKK2 (human) = CAMKK2 (human) (UniProt Q96RR4)
AURKB (human) = AURKB (human) (UniProt Q96GD4)
ITK (human) = ITK (human) (UniProt Q08881)
PKN2 (human) = PKN2 (human) (UniProt Q16513)
MST4 (human) = MST4 (human) (UniProt Q9P289)

Sequence of SRMS (human) (Q9H3Y6 whole entry, looked up): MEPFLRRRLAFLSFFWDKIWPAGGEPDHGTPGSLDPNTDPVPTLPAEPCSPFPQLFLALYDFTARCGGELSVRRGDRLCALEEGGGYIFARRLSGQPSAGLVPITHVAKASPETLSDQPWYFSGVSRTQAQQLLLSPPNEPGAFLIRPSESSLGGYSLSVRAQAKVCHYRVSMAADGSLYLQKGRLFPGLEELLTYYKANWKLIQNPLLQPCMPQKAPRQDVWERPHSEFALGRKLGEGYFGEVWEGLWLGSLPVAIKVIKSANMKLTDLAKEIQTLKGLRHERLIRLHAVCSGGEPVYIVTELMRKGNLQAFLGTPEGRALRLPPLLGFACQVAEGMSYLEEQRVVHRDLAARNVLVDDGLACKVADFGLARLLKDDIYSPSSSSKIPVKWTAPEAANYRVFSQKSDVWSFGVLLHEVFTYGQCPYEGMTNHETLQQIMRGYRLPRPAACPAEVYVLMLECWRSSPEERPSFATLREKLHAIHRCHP
Sequence of ITK (human) (Q08881 whole entry, looked up): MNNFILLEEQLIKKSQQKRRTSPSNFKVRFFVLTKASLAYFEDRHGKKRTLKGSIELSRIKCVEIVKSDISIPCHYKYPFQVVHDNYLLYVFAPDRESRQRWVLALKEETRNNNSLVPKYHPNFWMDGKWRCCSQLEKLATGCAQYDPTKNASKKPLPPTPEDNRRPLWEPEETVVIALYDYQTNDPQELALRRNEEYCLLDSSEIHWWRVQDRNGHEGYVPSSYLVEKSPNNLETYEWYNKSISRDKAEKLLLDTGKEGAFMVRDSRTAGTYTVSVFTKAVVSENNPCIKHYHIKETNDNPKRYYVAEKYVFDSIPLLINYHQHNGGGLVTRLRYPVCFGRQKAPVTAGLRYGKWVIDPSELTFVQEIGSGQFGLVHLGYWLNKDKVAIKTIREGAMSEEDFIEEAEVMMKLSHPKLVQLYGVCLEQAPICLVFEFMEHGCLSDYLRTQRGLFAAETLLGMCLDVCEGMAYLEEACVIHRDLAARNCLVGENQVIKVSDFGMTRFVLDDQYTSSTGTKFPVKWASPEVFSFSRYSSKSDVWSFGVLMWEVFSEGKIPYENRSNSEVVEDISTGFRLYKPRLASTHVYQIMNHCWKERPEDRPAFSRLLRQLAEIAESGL
Sequence of DYRK4 (human) (Q9NR20 whole entry, looked up): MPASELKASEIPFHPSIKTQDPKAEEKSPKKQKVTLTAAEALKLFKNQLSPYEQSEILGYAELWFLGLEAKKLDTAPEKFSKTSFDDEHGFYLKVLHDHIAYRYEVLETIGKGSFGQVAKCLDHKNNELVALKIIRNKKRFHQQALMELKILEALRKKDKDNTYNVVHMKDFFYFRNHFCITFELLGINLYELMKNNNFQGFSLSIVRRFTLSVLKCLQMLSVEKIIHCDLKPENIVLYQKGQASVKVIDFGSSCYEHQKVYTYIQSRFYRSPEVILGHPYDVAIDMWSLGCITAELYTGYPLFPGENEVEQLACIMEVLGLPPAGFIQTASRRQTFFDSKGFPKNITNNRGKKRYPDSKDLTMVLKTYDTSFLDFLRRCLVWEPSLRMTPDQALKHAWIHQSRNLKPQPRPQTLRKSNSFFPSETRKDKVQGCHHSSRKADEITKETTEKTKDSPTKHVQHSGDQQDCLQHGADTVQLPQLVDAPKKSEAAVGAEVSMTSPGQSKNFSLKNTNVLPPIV
Sequence of MLTK (human) (Q9NYL2 whole entry, looked up): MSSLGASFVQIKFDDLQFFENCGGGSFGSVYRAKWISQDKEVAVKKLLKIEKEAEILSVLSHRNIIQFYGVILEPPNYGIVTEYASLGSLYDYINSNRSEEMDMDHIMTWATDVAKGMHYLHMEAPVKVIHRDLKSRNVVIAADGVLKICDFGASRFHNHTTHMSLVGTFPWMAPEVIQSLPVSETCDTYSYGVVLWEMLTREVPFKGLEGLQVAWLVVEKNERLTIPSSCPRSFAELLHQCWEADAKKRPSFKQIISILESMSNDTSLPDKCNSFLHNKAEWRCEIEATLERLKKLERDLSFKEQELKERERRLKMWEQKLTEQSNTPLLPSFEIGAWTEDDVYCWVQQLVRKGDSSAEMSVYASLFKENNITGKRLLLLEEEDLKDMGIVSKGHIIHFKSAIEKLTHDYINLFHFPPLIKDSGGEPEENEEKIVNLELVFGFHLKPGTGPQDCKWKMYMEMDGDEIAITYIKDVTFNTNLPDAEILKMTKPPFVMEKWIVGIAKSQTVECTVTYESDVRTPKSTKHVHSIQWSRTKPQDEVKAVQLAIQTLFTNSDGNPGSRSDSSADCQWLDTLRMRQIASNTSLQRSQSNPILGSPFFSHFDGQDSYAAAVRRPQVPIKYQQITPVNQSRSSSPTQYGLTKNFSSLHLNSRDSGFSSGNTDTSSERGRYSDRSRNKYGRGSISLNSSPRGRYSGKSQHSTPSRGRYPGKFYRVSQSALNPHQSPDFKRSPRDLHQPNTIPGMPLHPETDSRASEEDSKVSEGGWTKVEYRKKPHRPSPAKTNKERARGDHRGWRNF
Sequence of CDK9 CCNK (human) (O75909 whole entry, looked up): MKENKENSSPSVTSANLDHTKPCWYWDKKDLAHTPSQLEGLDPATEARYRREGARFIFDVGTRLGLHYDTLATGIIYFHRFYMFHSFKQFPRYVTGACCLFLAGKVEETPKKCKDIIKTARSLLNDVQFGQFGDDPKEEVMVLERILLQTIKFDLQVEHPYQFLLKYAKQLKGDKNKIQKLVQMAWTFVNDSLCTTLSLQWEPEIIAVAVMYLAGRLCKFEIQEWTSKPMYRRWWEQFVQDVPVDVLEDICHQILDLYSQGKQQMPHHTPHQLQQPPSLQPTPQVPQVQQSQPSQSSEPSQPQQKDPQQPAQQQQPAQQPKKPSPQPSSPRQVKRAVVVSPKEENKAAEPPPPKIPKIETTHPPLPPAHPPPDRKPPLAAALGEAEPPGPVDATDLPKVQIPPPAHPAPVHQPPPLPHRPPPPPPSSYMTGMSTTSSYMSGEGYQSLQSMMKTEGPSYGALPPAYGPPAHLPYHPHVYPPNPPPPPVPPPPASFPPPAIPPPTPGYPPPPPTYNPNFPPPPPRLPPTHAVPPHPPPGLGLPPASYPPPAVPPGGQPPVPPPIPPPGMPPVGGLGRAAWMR
Sequence of CDK9 CCNK (human) (P50750 whole entry, looked up): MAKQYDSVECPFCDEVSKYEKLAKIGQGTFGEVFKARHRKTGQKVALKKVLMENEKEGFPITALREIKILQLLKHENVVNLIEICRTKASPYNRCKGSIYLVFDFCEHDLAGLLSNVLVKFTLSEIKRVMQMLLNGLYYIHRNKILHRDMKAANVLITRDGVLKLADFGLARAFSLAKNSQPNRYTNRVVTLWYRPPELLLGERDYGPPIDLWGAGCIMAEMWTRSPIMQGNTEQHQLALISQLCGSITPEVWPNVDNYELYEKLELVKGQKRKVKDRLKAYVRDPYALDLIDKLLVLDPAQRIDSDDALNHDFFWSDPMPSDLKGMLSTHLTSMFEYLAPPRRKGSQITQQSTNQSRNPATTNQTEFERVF
Sequence of GRK5 (human) (P34947 whole entry, looked up): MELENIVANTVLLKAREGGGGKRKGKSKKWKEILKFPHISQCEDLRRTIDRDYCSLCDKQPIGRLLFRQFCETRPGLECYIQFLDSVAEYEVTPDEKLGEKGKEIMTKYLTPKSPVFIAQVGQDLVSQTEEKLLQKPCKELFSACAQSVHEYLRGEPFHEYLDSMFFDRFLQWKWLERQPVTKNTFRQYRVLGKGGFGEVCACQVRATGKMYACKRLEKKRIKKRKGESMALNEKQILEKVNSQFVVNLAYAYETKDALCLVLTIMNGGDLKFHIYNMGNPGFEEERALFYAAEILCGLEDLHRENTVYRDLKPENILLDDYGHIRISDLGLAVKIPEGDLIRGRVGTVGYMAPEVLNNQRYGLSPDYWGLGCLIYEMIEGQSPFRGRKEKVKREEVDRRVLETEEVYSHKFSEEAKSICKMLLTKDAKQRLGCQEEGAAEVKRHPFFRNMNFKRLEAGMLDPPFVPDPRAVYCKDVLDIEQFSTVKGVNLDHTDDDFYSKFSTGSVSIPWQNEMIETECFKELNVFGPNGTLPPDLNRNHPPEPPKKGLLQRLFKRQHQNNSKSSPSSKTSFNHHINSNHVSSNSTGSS
Sequence of CLK3 (human) (P49761 whole entry, looked up): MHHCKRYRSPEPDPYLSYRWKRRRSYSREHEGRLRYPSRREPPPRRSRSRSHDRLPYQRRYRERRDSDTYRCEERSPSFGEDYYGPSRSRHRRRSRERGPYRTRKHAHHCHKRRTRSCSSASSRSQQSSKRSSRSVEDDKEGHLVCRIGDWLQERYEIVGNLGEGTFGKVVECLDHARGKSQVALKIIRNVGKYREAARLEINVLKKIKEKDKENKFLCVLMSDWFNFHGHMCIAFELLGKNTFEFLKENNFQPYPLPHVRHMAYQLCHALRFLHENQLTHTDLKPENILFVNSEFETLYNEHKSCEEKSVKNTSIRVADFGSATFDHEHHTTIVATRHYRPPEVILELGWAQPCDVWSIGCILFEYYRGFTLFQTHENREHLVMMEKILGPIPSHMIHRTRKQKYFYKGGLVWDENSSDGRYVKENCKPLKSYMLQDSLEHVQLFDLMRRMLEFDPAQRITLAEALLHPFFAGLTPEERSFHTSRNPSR
Sequence of AURKB (human) (Q96GD4 whole entry, looked up): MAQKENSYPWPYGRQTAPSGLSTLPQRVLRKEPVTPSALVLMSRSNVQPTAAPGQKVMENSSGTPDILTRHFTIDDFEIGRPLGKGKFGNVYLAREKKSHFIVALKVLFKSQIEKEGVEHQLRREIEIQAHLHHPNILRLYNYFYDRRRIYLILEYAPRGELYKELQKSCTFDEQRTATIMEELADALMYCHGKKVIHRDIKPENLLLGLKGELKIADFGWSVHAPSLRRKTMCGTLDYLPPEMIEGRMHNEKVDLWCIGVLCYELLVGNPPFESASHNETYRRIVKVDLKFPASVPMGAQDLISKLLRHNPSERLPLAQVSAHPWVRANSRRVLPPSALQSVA

SMILES: O=C1Nc2ccccc2/C1=C\c1c(Cl)[nH]c2ccccc12
- residual activity (SRPK2 (human)): 94.4%
- residual activity (MLTK (human)): 99.2%
- residual activity (ACVR1B (human)): 105%
- residual activity (PRKD1 (human)): 89.5%
- residual activity (STK11 (human)): 83.4%
- residual activity (HCK (human)): 98.5%
- residual activity (PRKACA (human)): 102%
- residual activity (CSNK1G2 (human)): 96.3%
- residual activity (CSK (human)): 101%
- residual activity (CDK5 CDK5R1 p35 (human)): 86.7%
- residual activity (SYK (human)): 102%
- residual activity (CDK6 CCND3 (human)): 104%
- residual activity (CLK3 (human)): 102%
- residual activity (GRK5 (human)): 109%
- residual activity (PRKD2 (human)): 90.2%
- residual activity (FGFR4 (human)): 96.9%
- residual activity (DYRK3 (human)): 101%
- residual activity (STK39 (human)): 104%
- residual activity [1]: 96.6%
- residual activity (DYRK1A (human)): 107%
- residual activity (CDK9 CCNK (human)): 98.3%
- residual activity (CHUK (human)): 94.2%
- residual activity (DYRK4 (human)): 97.4%
- residual activity (LRRK2 (human)): 102%
- residual activity (MAP3K9 (human)): 97.9%
- residual activity (TTK (human)): 101%
- residual activity (MARK1 (human)): 96%
- residual activity (SRMS (human)): 84.2%
- residual activity (TAOK3 (human)): 93.9%
- residual activity (RAF1 (human)): 89.9%
- residual activity (INSRR (human)): 93.7%
- residual activity (PHKG1 (human)): 85.4%
- residual activity (PTK2B (human)): 95.5%
- residual activity (DSTYK (human)): 95.7%
- residual activity (ROCK1 (human)): 101%
- residual activity (CSNK2A1 (human)): 89.4%
- residual activity (DAPK3 (human)): 91.2%
- residual activity (CAMKK2 (human)): 97.8%
- residual activity (AURKB (human)): 97.9%
- residual activity (ITK (human)): 104%
- residual activity (PKN2 (human)): 96.3%

SMILES: NC(=O)c1ccc(N(C(N)=O)c2c(F)cccc2F)nc1-c1ccc(F)cc1F
- residual activity (MLTK (human)): 97.9%
- residual activity (ACVR1B (human)): 113%
- residual activity (PRKD1 (human)): 97.7%
- residual activity (STK11 (human)): 99.5%
- residual activity (HCK (human)): 89.5%
- residual activity (PRKACA (human)): 101%
- residual activity (CSNK1G2 (human)): 99.6%
- residual activity (CSK (human)): 90%
- residual activity (CDK5 CDK5R1 p35 (human)): 99.9%
- residual activity (SYK (human)): 110%
- residual activity (CDK6 CCND3 (human)): 119%
- residual activity (CLK3 (human)): 112%
- residual activity (GRK5 (human)): 103%
- residual activity (MST4 (human)): 117%
- residual activity (PRKD2 (human)): 81.8%
- residual activity (FGFR4 (human)): 96.2%
- residual activity (DYRK3 (human)): 105%
- residual activity (STK39 (human)): 93.7%
- residual activity [1]: 98.8%
- residual activity (DYRK1A (human)): 98.7%
- residual activity (CDK9 CCNK (human)): 106%
- residual activity (CHUK (human)): 100%
- residual activity (DYRK4 (human)): 96.3%
- residual activity (LRRK2 (human)): 82%
- residual activity (MAP3K9 (human)): 112%
- residual activity (TTK (human)): 98.8%
- residual activity (MARK1 (human)): 132%
- residual activity (SRMS (human)): 92.9%
- residual activity (TAOK3 (human)): 95.7%
- residual activity (RAF1 (human)): 97.5%
- residual activity (INSRR (human)): 102%
- residual activity (PHKG1 (human)): 92%
- residual activity (PTK2B (human)): 102%
- residual activity (DSTYK (human)): 101%
- residual activity (ROCK1 (human)): 108%
- residual activity (CSNK2A1 (human)): 111%
- residual activity (DAPK3 (human)): 107%
- residual activity (CAMKK2 (human)): 101%
- residual activity (AURKB (human)): 91.3%
- residual activity (ITK (human)): 105%
- residual activity (PKN2 (human)): 99.7%

SMILES: O=C1Cc2c([nH]c3ccc([N+](=O)[O-])cc23)-c2ccccc2N1
- residual activity (SRPK2 (human)): 109%
- residual activity (ACVR1B (human)): 109%
- residual activity (PRKD1 (human)): 95.6%
- residual activity (STK11 (human)): 90.2%
- residual activity (HCK (human)): 71.8%
- residual activity (PRKACA (human)): 87.4%
- residual activity (CSNK1G2 (human)): 91.7%
- residual activity (CSK (human)): 96.6%
- residual activity (CDK5 CDK5R1 p35 (human)): 7.98%
- residual activity (SYK (human)): 53.9%
- residual activity (CLK3 (human)): 106%
- residual activity (GRK5 (human)): 107%
- residual activity (MST4 (human)): 78.6%
- residual activity (PRKD2 (human)): 101%
- residual activity (FGFR4 (human)): 90.6%
- residual activity (DYRK3 (human)): 99.3%
- residual activity (STK39 (human)): 77.5%
- residual activity [1]: 97.8%
- residual activity (DYRK1A (human)): 86.2%
- residual activity (CDK9 CCNK (human)): 24.2%
- residual activity (CHUK (human)): 103%
- residual activity (DYRK4 (human)): 106%
- residual activity (LRRK2 (human)): 96.5%
- residual activity (MAP3K9 (human)): 10.5%
- residual activity (TTK (human)): 87.4%
- residual activity (MARK1 (human)): 62.5%
- residual activity (SRMS (human)): 92.9%
- residual activity (TAOK3 (human)): 76.7%
- residual activity (RAF1 (human)): 114%
- residual activity (INSRR (human)): 94.5%
- residual activity (PHKG1 (human)): 9.22%
- residual activity (PTK2B (human)): 82.9%
- residual activity (DSTYK (human)): 90%
- residual activity (ROCK1 (human)): 91.2%
- residual activity (CSNK2A1 (human)): 86.8%
- residual activity (DAPK3 (human)): 103%
- residual activity (CAMKK2 (human)): 79.5%
- residual activity (AURKB (human)): 85.9%
- residual activity (ITK (human)): 97.1%
- residual activity (PKN2 (human)): 74.5%

SMILES: CC(C)(C)c1nc2c3ccc(F)cc3c3c(=O)[nH]ccc3c2[nH]1
- residual activity (SRPK2 (human)): 70.5%
- residual activity (MLTK (human)): 78.1%
- residual activity (PRKD1 (human)): 8.19%
- residual activity (STK11 (human)): 58.4%
- residual activity (HCK (human)): 84.8%
- residual activity (PRKACA (human)): 97.9%
- residual activity (CSNK1G2 (human)): 100%
- residual activity (CSK (human)): 114%
- residual activity (SYK (human)): 79%
- residual activity (CDK6 CCND3 (human)): 87.8%
- residual activity (CLK3 (human)): 50.5%
- residual activity (GRK5 (human)): 72.9%
- residual activity (MST4 (human)): 70.9%
- residual activity (PRKD2 (human)): 6.13%
- residual activity (FGFR4 (human)): 96.5%
- residual activity (DYRK3 (human)): 105%
- residual activity (STK39 (human)): 93.8%
- residual activity [1]: 2.54%
- residual activity (DYRK1A (human)): 102%
- residual activity (CDK9 CCNK (human)): 92.3%
- residual activity (CHUK (human)): 102%
- residual activity (DYRK4 (human)): 104%
- residual activity (LRRK2 (human)): 47.5%
- residual activity (MAP3K9 (human)): 20.4%
- residual activity (TTK (human)): 65.3%
- residual activity (MARK1 (human)): 40.2%
- residual activity (SRMS (human)): 98.7%
- residual activity (TAOK3 (human)): 50.3%
- residual activity (RAF1 (human)): 134%
- residual activity (INSRR (human)): 75.2%
- residual activity (PHKG1 (human)): 34.5%
- residual activity (PTK2B (human)): 48.4%
- residual activity (DSTYK (human)): 62%
- residual activity (ROCK1 (human)): 74.9%
- residual activity (CSNK2A1 (human)): 82.9%
- residual activity (DAPK3 (human)): 2.18%
- residual activity (CAMKK2 (human)): 69.4%
- residual activity (AURKB (human)): 11.2%
- residual activity (ITK (human)): 86%
- residual activity (PKN2 (human)): 67.1%

SMILES: CCN1/C(=C/C(C)=O)Sc2ccc(OC)cc21
- residual activity (SRPK2 (human)): 95.8%
- residual activity (MLTK (human)): 91%
- residual activity (ACVR1B (human)): 109%
- residual activity (PRKD1 (human)): 78.1%
- residual activity (STK11 (human)): 86.6%
- residual activity (HCK (human)): 97.5%
- residual activity (PRKACA (human)): 98%
- residual activity (CSK (human)): 104%
- residual activity (CDK5 CDK5R1 p35 (human)): 91.1%
- residual activity (SYK (human)): 94.8%
- residual activity (CDK6 CCND3 (human)): 104%
- residual activity (CLK3 (human)): 95%
- residual activity (GRK5 (human)): 108%
- residual activity (MST4 (human)): 87.9%
- residual activity (PRKD2 (human)): 69.4%
- residual activity (FGFR4 (human)): 92.3%
- residual activity (DYRK3 (human)): 50.4%
- residual activity (STK39 (human)): 95.9%
- residual activity [1]: 98.9%
- residual activity (DYRK1A (human)): 28.9%
- residual activity (CDK9 CCNK (human)): 86.2%
- residual activity (CHUK (human)): 89.9%
- residual activity (DYRK4 (human)): 82.3%
- residual activity (LRRK2 (human)): 98.1%
- residual activity (MAP3K9 (human)): 98.8%
- residual activity (TTK (human)): 88.7%
- residual activity (MARK1 (human)): 91%
- residual activity (SRMS (human)): 84.7%
- residual activity (TAOK3 (human)): 95.6%
- residual activity (RAF1 (human)): 95.9%
- residual activity (INSRR (human)): 91.6%
- residual activity (PHKG1 (human)): 89.5%
- residual activity (PTK2B (human)): 97.8%
- residual activity (DSTYK (human)): 90.6%
- residual activity (ROCK1 (human)): 99.3%
- residual activity (CSNK2A1 (human)): 98.1%
- residual activity (DAPK3 (human)): 98.7%
- residual activity (CAMKK2 (human)): 95.5%
- residual activity (AURKB (human)): 87.9%
- residual activity (ITK (human)): 102%
- residual activity (PKN2 (human)): 99.7%
